Read-outs that look alike come from different tables or passages of the source.

The results in this text go back to US10829473B2, “Modulators of the cystic fibrosis transmembrane conductance regulator protein and methods of use” (AbbVie Overseas S.Á.R.L., priority 2017, dated 2020).

For the experiment, the target named is T1, F508delCFTR (Homo sapiens, UniProt P13569, DEL508-508).
T1 construct: expressed in transfected cells; host or cells: CFBE41o- human lung derived epithelial cells (CFBE41o-F508delCFTR-HRP), doxycycline-inducible
In words: Cell Surface Expression-Horse Radish Peroxidase (CSE-HRP) Assay.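 As to EC50 (with co-corrector): co-corrector chromenyl benzoic acid corrector at 2 or 3 µM.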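 As to Maximum % activity (without co-corrector): % of on-plate positive control chromenyl benzoic acid corrector at 2 or 3 µM.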 Type of experiment: cell-based. As to conditions: for Maximum % activity (with co-corrector) / Emax: maximum at any tested concentration; for Emax: read-out: Maximum % activity (without co-corrector). Put shortly: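 Corrector compounds were given as 8-point 3-fold series from 20 or 30 μM, with or without a 2 μM co-corrector, for 18-24 h at 33 °C. Surface HRP was read by luminol luminescence as % of positive control; variable-Hill-slope sigmoidal fitting gave EC50 from triplicate plates.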

Setting [1] is: test compound alone, without co-corrector, read-out: EC50 (without co-corrector).
[2] abbreviates: with co-corrector, read-out: EC50 (with co-corrector).

T1 sequence (P13569 with tags, fused parts or gaps DEL508-508): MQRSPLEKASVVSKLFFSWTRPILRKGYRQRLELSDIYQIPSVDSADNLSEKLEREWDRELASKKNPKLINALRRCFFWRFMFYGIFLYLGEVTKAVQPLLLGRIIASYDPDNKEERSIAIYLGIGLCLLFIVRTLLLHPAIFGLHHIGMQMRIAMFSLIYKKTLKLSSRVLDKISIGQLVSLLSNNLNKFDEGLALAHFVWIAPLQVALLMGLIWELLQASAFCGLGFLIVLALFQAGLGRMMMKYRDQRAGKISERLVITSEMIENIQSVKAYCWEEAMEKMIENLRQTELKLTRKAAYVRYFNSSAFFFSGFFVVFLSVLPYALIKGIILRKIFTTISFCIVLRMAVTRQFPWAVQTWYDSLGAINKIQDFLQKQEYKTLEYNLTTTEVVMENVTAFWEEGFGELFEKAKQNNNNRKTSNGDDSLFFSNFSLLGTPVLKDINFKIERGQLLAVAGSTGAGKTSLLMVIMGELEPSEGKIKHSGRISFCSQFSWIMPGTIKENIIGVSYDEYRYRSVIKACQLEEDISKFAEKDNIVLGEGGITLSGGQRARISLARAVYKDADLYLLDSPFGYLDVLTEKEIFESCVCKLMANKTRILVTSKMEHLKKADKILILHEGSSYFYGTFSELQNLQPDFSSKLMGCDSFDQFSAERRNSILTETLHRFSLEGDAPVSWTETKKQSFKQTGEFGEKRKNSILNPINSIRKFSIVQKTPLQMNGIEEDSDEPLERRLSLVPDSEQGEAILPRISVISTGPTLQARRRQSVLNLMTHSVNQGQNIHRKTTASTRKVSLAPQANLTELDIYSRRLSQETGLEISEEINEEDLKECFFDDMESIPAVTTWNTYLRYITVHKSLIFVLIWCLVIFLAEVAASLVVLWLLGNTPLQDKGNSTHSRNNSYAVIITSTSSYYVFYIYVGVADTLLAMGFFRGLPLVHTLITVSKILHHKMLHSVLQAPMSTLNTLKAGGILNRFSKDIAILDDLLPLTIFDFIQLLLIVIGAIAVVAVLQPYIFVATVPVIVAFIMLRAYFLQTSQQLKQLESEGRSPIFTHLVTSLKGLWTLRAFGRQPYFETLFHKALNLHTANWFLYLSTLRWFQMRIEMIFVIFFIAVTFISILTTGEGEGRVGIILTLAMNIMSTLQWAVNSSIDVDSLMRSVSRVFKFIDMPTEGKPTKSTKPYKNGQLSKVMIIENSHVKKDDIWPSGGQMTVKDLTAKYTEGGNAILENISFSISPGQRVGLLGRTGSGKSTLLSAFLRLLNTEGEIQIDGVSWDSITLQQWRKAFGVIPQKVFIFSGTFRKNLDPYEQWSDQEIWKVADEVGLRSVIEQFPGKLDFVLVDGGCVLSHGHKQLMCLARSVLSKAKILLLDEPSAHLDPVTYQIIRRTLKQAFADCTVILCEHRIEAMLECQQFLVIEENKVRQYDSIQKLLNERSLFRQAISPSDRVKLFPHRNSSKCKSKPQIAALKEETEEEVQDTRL

As a reminder, the EC50 is the concentration giving half of the maximal effect. Take `CCc1ccc(OC)c(C2(C(=O)NS(=O)(=O)c3cccc4nc(C)ccc34)CC2)c1` [Example I-84, 1-(5-ethyl-2-methoxyphenyl)-N-(2-methylquinoline-5-sulfonyl)cyclopropane-1-carboxamide]: the EC50 was under 3 µM under setting [1] and under 3 µM under setting [2]. Also, where the note is “with co-corrector”, the “Maximum % activity (with co-corrector)” value was “+++ (≥350)”. Where the note is “without co-corrector”, the Emax was over 150%.
With `CNC1(c2ccc(OC)c(C3(C(=O)NS(=O)(=O)c4cccc5ncccc45)CC3)c2)CC1` [Example I-85, 1-{2-methoxy-5-[1-(methylamino)cyclopropyl]phenyl}-N-(quinoline-5-sulfonyl)cyclopropane-1-carboxamide], the half-maximal effective concentration (EC50) reads like this: under setting [1], over 10 µM; under setting [2], 3 to 10 µM. The “Maximum % activity (with co-corrector)” value (with co-corrector) was “++ (≥150 and <350)”. Besides, where the note is “without co-corrector”, the Emax was under 50%.
On to `COc1cc(C2CCC2)cc(OC)c1C1(C(=O)NS(=O)(=O)c2cccc3[nH]ccc23)CC1` [Example I-86, 1-(4-cyclobutyl-2,6-dimethoxyphenyl)-N-(1H-indole-4-sulfonyl)cyclopropane-1-carboxamide], for which the EC50 is under 3 µM under setting [1] and under 3 µM under setting [2]. Where the note is “with co-corrector”, the “Maximum % activity (with co-corrector)” value is reported as “+++ (≥350)”. Further, for the setting “without co-corrector”, the Emax is over 150%.
Regarding `Cc1ccc(OC(C)C)c(C2(C(=O)NS(=O)(=O)c3cccc4nc(N)ccc34)CC2)c1` [Example I-87, N-(2-aminoquinoline-5-sulfonyl)-1-{5-methyl-2-[(propan-2-yl)oxy]phenyl}cyclopropane-1-carboxamide], the EC50 under setting [1] is under 3 µM and the concentration giving a half-maximal response (EC50) under setting [2] was under 3 µM. Also, where the note is “with co-corrector”, the “Maximum % activity (with co-corrector)” value is on record as “+++ (≥350)”. The Emax (without co-corrector) is over 150%.
Turning to `COc1ccc(C2(OC)CCC2)cc1C1(C(=O)NS(=O)(=O)c2cccc3ncccc23)CC1` [Example I-88, 1-[2-methoxy-5-(1-methoxycyclobutyl)phenyl]-N-(quinoline-5-sulfonyl)cyclopropane-1-carboxamide], the EC50 runs as follows: under setting [1], 3 to 10 µM; under setting [2], under 3 µM. Further, the “Maximum % activity (with co-corrector)” value (with co-corrector) is “+++ (≥350)”. Besides, where the note is “without co-corrector”, the Emax is over 150%.
On to `CCOc1ccc(C)cc1C1(C(=O)NS(=O)(=O)c2cccc3nc(N)ccc23)CC1` [Example I-89, N-(2-aminoquinoline-5-sulfonyl)-1-(2-ethoxy-5-methylphenyl)cyclopropane-1-carboxamide], for which the concentration for a half-maximal effect (EC50) under setting [1] is under 3 µM and the concentration giving a half-maximal response (EC50) under setting [2] is under 3 µM. The “Maximum % activity (with co-corrector)” value (with co-corrector) was “+++ (≥350)”. Also, the Emax (without co-corrector) was over 150%.
With `COc1ccc(C2COC2)cc1C1(C(=O)NS(=O)(=O)c2cccc3ncccc23)CC1` [Example I-90, 1-[2-methoxy-5-(oxetan-3-yl)phenyl]-N-(quinoline-5-sulfonyl)cyclopropane-1-carboxamide], the EC50 under setting [1] lay within 3 to 10 µM and the EC50 under setting [2] fell in the range of 3 to 10 µM. Further, the “Maximum % activity (with co-corrector)” value (with co-corrector) is “+++ (≥350)”. Besides, the Emax (without co-corrector) fell in the range of 50 to 150%.
For the compound `CCOc1ccc(C)cc1C1(C(=O)NS(=O)(=O)c2cccc3[nH]c(C)cc23)CC1` [Example I-91, 1-(2-ethoxy-5-methylphenyl)-N-(2-methyl-1H-indole-4-sulfonyl)cyclopropane-1-carboxamide], the EC50 under setting [1] is under 3 µM and the EC50 under setting [2] was under 3 µM. In addition, the “Maximum % activity (with co-corrector)” value (with co-corrector) is given as “+++ (≥350)”. Further, the Emax (without co-corrector) is over 150%.
Consider `COc1cc(C2(C(=O)NS(=O)(=O)c3cccc4nc(N)ccc34)CC2)c(OCC(C)C)cn1` [Example I-92, N-(2-aminoquinoline-5-sulfonyl)-1-[2-methoxy-5-(2-methylpropoxy)pyridin-4-yl]cyclopropane-1-carboxamide], for which the EC50 by setting is: under setting [1], under 3 µM; under setting [2], under 3 µM. The “Maximum % activity (with co-corrector)” value (with co-corrector) is given as “+++ (≥350)”. Besides, the Emax (without co-corrector) was over 150%.
`Cc1ccc(OC2COC2)c(C2(C(=O)NS(=O)(=O)c3cccc4ncccc34)CC2)c1` [Example I-93, 1-{5-methyl-2-[(oxetan-3-yl)oxy]phenyl}-N-(quinoline-5-sulfonyl)cyclopropane-1-carboxamide]: the 50% effective concentration (EC50) reads like this: under setting [1], 3 to 10 µM; under setting [2], under 3 µM. Moreover, the “Maximum % activity (with co-corrector)” value (with co-corrector) was “+++ (≥350)”. Further, the Emax (without co-corrector) is over 150%.
On the same counts, the results for `CCc1cnc(OCC(C)C)c(C2(C(=O)NS(=O)(=O)c3cccc4[nH]ncc34)CC2)c1` [Example I-94, 1-[5-ethyl-2-(2-methylpropoxy)pyridin-3-yl]-N-(1H-indazole-4-sulfonyl)cyclopropane-1-carboxamide] are under 3 µM, under 3 µM, “+++ (≥350)” and over 150%.
Take `COC[C@@H](C)Oc1ccc(C)cc1C1(C(=O)NS(=O)(=O)c2cccc3ncccc23)CC1` [Example I-95, 1-(2-{[(2R)-1-methoxypropan-2-yl]oxy}-5-methylphenyl)-N-(quinoline-5-sulfonyl)cyclopropane-1-carboxamide]: the concentration for a half-maximal effect (EC50) runs as follows: under setting [1], under 3 µM; under setting [2], under 3 µM. For the same compound, where the note is “with co-corrector”, the “Maximum % activity (with co-corrector)” value is “+++ (≥350)”. Moreover, the Emax (without co-corrector) is over 150%.
On to `Cc1cnc(OCC(C)C)c(C2(C(=O)NS(=O)(=O)c3cccc4nc(N)ccc34)CC2)c1` [Example I-96, N-(2-aminoquinoline-5-sulfonyl)-1-[5-methyl-2-(2-methylpropoxy)pyridin-3-yl]cyclopropane-1-carboxamide], for which the EC50 under setting [1] is under 3 µM and the concentration giving a half-maximal response (EC50) under setting [2] is under 3 µM. In addition, the “Maximum % activity (with co-corrector)” value (with co-corrector) is “+++ (≥350)”. Moreover, where the note is “without co-corrector”, the Emax was over 150%.
For `Cc1cnc(OC(C)C)c(C2(C(=O)NS(=O)(=O)c3cccc4nc(N)ccc34)CC2)c1` [Example I-97, N-(2-aminoquinoline-5-sulfonyl)-1-{5-methyl-2-[(propan-2-yl)oxy]pyridin-3-yl}cyclopropane-1-carboxamide], the concentration giving a half-maximal response (EC50) by setting is: under setting [1], under 3 µM; under setting [2], under 3 µM. The “Maximum % activity (with co-corrector)” value (with co-corrector) is recorded as “+++ (≥350)”. For the same compound, the Emax (without co-corrector) was over 150%.
Consider `CCc1cnc(OCC(C)C)c(C2(C(=O)NS(=O)(=O)c3cccc4nc(N)ccc34)CC2)c1` [Example I-98, N-(2-aminoquinoline-5-sulfonyl)-1-[5-ethyl-2-(2-methylpropoxy)pyridin-3-yl]cyclopropane-1-carboxamide], for which the EC50 under setting [1] was under 3 µM and the EC50 under setting [2] is under 3 µM. In addition, the “Maximum % activity (with co-corrector)” value (with co-corrector) is “+++ (≥350)”. Also, where the note is “without co-corrector”, the Emax was over 150%.
Regarding `CCOc1ccc(C(C)(C)OCC)cc1C1(C(=O)NS(=O)(=O)c2cccc3ncccc23)CC1` [Example I-99, 1-[2-ethoxy-5-(2-ethoxypropan-2-yl)phenyl]-N-(quinoline-5-sulfonyl)cyclopropane-1-carboxamide], the concentration for a half-maximal effect (EC50) by setting is: under setting [1], under 3 µM; under setting [2], under 3 µM. Also, for the setting “with co-corrector”, the “Maximum % activity (with co-corrector)” value is “+++ (≥350)”. In addition, the Emax (without co-corrector) is over 150%.
Take `Cc1ccc(OC(F)F)c(C2(C(=O)NS(=O)(=O)c3cccc4ncccc34)CC2)c1` [Example I-100, 1-[2-(difluoromethoxy)-5-methylphenyl]-N-(quinoline-5-sulfonyl)cyclopropane-1-carboxamide]: the concentration for a half-maximal effect (EC50) reads like this: under setting [1], under 3 µM; under setting [2], under 3 µM. Further, the “Maximum % activity (with co-corrector)” value (with co-corrector) was “+++ (≥350)”. For the same compound, where the note is “without co-corrector”, the Emax was over 150%.
In the case of `CCOc1ccc(C(C)(C)COC)cc1C1(C(=O)NS(=O)(=O)c2cccc3ncccc23)CC1` [Example I-101, 1-[2-ethoxy-5-(1-methoxy-2-methylpropan-2-yl)phenyl]-N-(quinoline-5-sulfonyl)cyclopropane-1-carboxamide], the EC50 is, setting by setting: under setting [1], under 3 µM; under setting [2], under 3 µM. For the same compound, the “Maximum % activity (with co-corrector)” value (with co-corrector) is reported as “+++ (≥350)”. Further, the Emax (without co-corrector) was over 150%.
Take `CCOc1ccc(C2(OC)CCC2)cc1C1(C(=O)NS(=O)(=O)c2cccc3ncccc23)CC1` [Example I-102, 1-[2-ethoxy-5-(1-methoxycyclobutyl)phenyl]-N-(quinoline-5-sulfonyl)cyclopropane-1-carboxamide]: the concentration giving a half-maximal response (EC50) runs as follows: under setting [1], under 3 µM; under setting [2], under 3 µM. The “Maximum % activity (with co-corrector)” value (with co-corrector) is on record as “+++ (≥350)”. For the same compound, the Emax (without co-corrector) is over 150%.
In the case of `CCOc1ccc(C(C)(C)OCC)cc1C1(C(=O)NS(=O)(=O)c2cccc3nc(C)ccc23)CC1` [Example I-103, 1-[2-ethoxy-5-(2-ethoxypropan-2-yl)phenyl]-N-(2-methylquinoline-5-sulfonyl)cyclopropane-1-carboxamide], the EC50 was under 3 µM under setting [1] and under 3 µM under setting [2]. Further, the “Maximum % activity (with co-corrector)” value (with co-corrector) was “+++ (≥350)”. Besides, where the note is “without co-corrector”, the Emax was over 150%.
`CCOc1ccc(C(C)(C)OC)cc1C1(C(=O)NS(=O)(=O)c2cccc3nc(C)ccc23)CC1` [Example I-104, 1-[2-ethoxy-5-(2-methoxypropan-2-yl)phenyl]-N-(2-methylquinoline-5-sulfonyl)cyclopropane-1-carboxamide]: the 50% effective concentration (EC50) by setting is: under setting [1], under 3 µM; under setting [2], under 3 µM. Also, the “Maximum % activity (with co-corrector)” value (with co-corrector) is listed as “+++ (≥350)”. Besides, the Emax (without co-corrector) was over 150%.
For the compound `CCOc1ccc(C2(OC)CCC2)cc1C1(C(=O)NS(=O)(=O)c2cccc3nc(C)ccc23)CC1` [Example I-105, 1-[2-ethoxy-5-(1-methoxycyclobutyl)phenyl]-N-(2-methylquinoline-5-sulfonyl)cyclopropane-1-carboxamide], the EC50 by setting is: under setting [1], under 3 µM; under setting [2], under 3 µM. In addition, the “Maximum % activity (with co-corrector)” value (with co-corrector) was “+++ (≥350)”. Further, the Emax (without co-corrector) is over 150%.
